In publication PMC8279417 (Journal of Medicinal Chemistry, 2021):
Read-outs that look alike come from different tables or passages of the source.

Tests used:
ERα [1] = biological target: T1, ERα (Homo sapiens, UniProt P03372); conditions: for IC50: read-out: TR-FRET ERα IC50, displacement of fluorescent-labeled E2 from the LBD of ERα; for RBA ERα: relative binding affinity compared to E2 (100%)
T1 sequence (P03372 311-547 limits assumed): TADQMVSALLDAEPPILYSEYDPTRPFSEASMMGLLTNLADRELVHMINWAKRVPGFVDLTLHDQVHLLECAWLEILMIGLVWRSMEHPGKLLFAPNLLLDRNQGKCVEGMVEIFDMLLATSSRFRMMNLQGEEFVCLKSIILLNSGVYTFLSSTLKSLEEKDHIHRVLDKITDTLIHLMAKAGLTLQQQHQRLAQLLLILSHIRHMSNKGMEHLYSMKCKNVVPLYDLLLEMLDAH
Procedure: (§1) LanthaScreen TR-FRET ER alpha/beta competitive binding assays (Invitrogen, Carlsbad) were used to investigate the binding affinity to the isolated receptors according to the manufacturer′s protocols. Measurement was performed with an Enspire multimode plate reader (PerkinElmer Life Sciences, Waltham). Calculations were performed with Excel (Microsoft, Redmond) and GraphPad Prism (GraphPad Software, San Diego).

ERα [2] = biological target: T2, ERα (Homo sapiens, UniProt P03372); assay: Luciferase reporter gene assay (transactivation), U2OS cells transfected with pSG5-ERα; format: cell-based; conditions: inhibition of E2-induced (0.03 nM) transactivation
T2 sequence (P03372 1-595): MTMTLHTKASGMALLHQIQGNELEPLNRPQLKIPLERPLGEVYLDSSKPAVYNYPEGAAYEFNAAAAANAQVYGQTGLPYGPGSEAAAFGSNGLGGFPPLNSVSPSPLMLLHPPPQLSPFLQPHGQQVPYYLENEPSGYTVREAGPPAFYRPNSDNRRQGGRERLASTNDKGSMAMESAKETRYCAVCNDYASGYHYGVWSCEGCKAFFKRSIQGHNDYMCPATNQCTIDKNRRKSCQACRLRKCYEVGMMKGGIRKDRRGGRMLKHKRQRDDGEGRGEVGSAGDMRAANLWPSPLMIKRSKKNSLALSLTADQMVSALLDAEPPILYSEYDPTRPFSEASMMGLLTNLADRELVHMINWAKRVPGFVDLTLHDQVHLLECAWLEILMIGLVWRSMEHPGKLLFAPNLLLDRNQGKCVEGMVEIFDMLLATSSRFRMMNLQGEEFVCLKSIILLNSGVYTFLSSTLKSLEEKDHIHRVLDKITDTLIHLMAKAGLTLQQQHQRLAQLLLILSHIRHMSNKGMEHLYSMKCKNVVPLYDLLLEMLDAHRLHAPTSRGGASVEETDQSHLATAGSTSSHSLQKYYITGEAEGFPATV

ERα [3] = biological target: T2, ERα; assay: In-Cell Western immunoassay, ERα levels in MCF-7 cells; format: cell-based; conditions: for % ERα remaining [1 μM]: MCF-7 cells, 24 h, compared to the solvent control (DMSO)
Procedure: Degradation was evaluated with the CellTagTM 700 In-Cell Western kit (LI-COR, Lincoln) according to the manufacturer’s protocol. MCF-7 cells were treated, and calculation was performed as previously described.[24]

ERβ [4] = biological target: T3, ERβ (Homo sapiens, UniProt Q92731); assay: Luciferase reporter gene assay (transactivation), U2OS cells transfected with pSG5-ERβ; format: cell-based; conditions: inhibition of E2-induced (0.3 nM) transactivation
Target sequence in this assay (Q92731 whole entry, the tested form may be a part): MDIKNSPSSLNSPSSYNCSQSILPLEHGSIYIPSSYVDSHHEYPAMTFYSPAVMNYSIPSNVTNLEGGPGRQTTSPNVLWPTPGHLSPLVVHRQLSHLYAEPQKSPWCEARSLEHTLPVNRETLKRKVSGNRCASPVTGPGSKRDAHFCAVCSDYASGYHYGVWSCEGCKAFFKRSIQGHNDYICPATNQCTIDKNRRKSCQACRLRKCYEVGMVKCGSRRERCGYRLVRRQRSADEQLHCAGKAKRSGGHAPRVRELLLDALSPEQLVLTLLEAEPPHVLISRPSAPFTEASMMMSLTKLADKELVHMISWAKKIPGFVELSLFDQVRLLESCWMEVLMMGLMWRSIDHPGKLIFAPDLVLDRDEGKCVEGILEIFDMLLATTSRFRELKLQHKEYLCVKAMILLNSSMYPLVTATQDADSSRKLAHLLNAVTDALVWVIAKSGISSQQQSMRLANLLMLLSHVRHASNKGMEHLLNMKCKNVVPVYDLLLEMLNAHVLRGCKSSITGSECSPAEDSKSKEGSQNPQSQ

ERβ [5] = biological target: T3, ERβ; conditions: for IC50: read-out: TR-FRET ERβ IC50, displacement of fluorescent-labeled E2 from the LBD of ERβ; for RBA ERβ: relative binding affinity compared to E2 (100%)
Target sequence in this assay (Q92731 264-498 limits assumed): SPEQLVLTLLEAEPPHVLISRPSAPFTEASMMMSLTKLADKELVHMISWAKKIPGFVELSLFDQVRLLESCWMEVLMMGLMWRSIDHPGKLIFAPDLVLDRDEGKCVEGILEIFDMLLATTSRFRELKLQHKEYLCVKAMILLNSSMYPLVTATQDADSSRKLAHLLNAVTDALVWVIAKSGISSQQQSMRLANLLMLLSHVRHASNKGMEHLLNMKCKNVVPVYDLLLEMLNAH
Procedure: as §1

Compound | IC50 (ERα [1]) [nM] | RBA ERα (ERα [1]) [%] | IC50 (ERα [2]) [nM] | % ERα remaining [1 μM] (ERα [3]) [%] | IC50 (ERβ [4]) [nM] | IC50 (ERβ [5]) [nM] | RBA ERβ (ERβ [5]) [%] | Emax at 1 µM (ERα [3]; MCF7, read-out: % efficacy [1 μM], downregulation of ERα compared to fulvestrant (100%), MCF-7, 1 μM) [%]
CCC(=C(c1ccc(O)cc1)c1ccc(/C=C/C(=O)NCCCCNC(=O)CCc2nc3cc(OC)ccc3[nH]2)cc1)c1ccccc1 (mixture of isomers) [Compound 34, (E)-3-[4-((E/Z)-1-(4-Hydroxyphenyl)-2-phenylbut-1-enyl)phenyl]-N-[4-(3-(5-methoxy-1H-benzo[d]imidazol-2-yl)propanamido)butyl]acrylamide] | 2.22 ± 0.76 | 14.9 | 34.5 ± 3.5 | 132.9 ± 14.1 | – | – | – | –
CCC(=C(c1ccc(O)cc1)c1ccc(/C=C/C(=O)NCCNC(=O)CCc2nc3cc(OC)ccc3[nH]2)cc1)c1ccccc1 (mixture of isomers) [Compound 31, (E)-3-[4-((E/Z)-1-(4-Hydroxyphenyl)-2-phenylbut-1-enyl)phenyl]-N-[2-(3-(5-methoxy-1H-benzo[d]imidazol-2-yl)propanamido)ethyl]acrylamide] | – | 12 | – | 113.8 ± 4.3 | 6.7 ± 2.7 | 4.88 ± 2.65 | 15.2 | –
C[C@]12CC[C@@H]3c4ccc(O)cc4C[C@@H](CCCCCCCCC[S+]([O-])CCCC(F)(F)C(F)(F)F)[C@H]3[C@@H]1CC[C@@H]2O (stereo partly shown) [fulvestrant, reference compound] | – | – | – | – | – | – | 10.0 | –
CCC(=C(c1ccc(O)cc1)c1ccc(/C=C/C(=O)NCCCCNC(=O)CCc2nc3cc(O)ccc3[nH]2)cc1)c1ccccc1 (mixture of isomers) [Compound 41, (E)-N-[4-(3-(5-Hydroxy-1H-benzo[d]imidazol-2-yl)propanamido)butyl]-3-[4-((E/Z)-1-(4-hydroxyphenyl)-2-phenylbut-1-enyl)phenyl]acrylamide] | – | – | – | – | 15.9 ± 1.7 | 2.84 ± 1.31 | 26.2 | –
CCC(=C(c1ccc(O)cc1)c1ccc(/C=C/C(=O)NCCCCCCNC(=O)CCc2nc3cc(O)ccc3[nH]2)cc1)c1ccccc1 (mixture of isomers) [Compound 43, (E)-N-[6-(3-(5-Hydroxy-1H-benzo[d]imidazol-2-yl)propanamido)hexyl]-3-[4-((E/Z)-1-(4-hydroxyphenyl)-2-phenylbut-1-enyl)phenyl]acrylamide] | – | – | – | – | 16.1 ± 7 | 7.8 ± 2.3 | 9.5 | –
CCC(=C(c1ccc(O)cc1)c1ccc(/C=C/C(=O)NCCCNC(=O)CCc2nc3ccc(OC)cc3[nH]2)cc1)c1ccccc1 (mixture of isomers) [Compound 32, (E)-3-[4-((E/Z)-1-(4-Hydroxyphenyl)-2-phenylbut-1-enyl)phenyl]-N-[3-(3-(5-methoxy-1H-benzo[d]imidazol-2-yl)propanamido)propyl]acrylamide] | 4.11 ± 1.88 | 8 | 21.5 ± 10.7 | 120.3 ± 31.6 | 26.9 ± 5.7 | 3.01 ± 4 | 24.7 | –
CCC(=C(c1ccc(O)cc1)c1ccc(/C=C/C(=O)NCCNC(=O)CCc2nc3cc(O)ccc3[nH]2)cc1)c1ccccc1 (mixture of isomers) [Compound 39, (E)-N-[2-(3-(5-Hydroxy-1H-benzo[d]imidazol-2-yl)propanamido)ethyl]-3-[4-((E/Z)-1-(4-hydroxyphenyl)-2-phenylbut-1-enyl)phenyl]acrylamide] | 1.45 ± 0.37 | 22.8 | 26 ± 6.6 | 99.2 ± 3.5 | – | – | – | 1
CCC(=C(c1ccc(O)cc1)c1ccc(/C=C/C(=O)NCCCNC(=O)CCc2nc3cc(O)ccc3[nH]2)cc1)c1ccccc1 (mixture of isomers) [Compound 40, (E)-N-[3-(3-(5-Hydroxy-1H-benzo[d]imidazol-2-yl)propanamido)propyl]-3-[4-((E/Z)-1-(4-hydroxyphenyl)-2-phenylbut-1-enyl)phenyl]acrylamide] | – | – | – | – | 18.7 ± 8.3 | 3.78 ± 1.54 | 19.7 | –
